We go through 3 molecules from patent US4950650A, “Novel arginine vasopressin-binding peptides” (University of Florida, priority 1988, dated 1990).

Where no end group is shown, it is not given here.

In experiment [1] the test system is AVP receptor on splenic lymphocyte. The experiment is described as follows: Binding of 3H-AVP to receptor on splenic lymphocyte membranes. Also on record: species or system mouse. The note with it: for DPM (Mean ± SD): 300 nM 3H-AVP. The method, then: Membranes were prepared as previously described (Torres and Johnson [1988] supra). Freshly dissociated spleen cells were incubated on plastic at 37° C. for 1 hr to remove adherent cells. Plates were washed and non-adherent cells were incubated for an additional hour at 37° C. Washed non-adherent cells were resuspended in 50 mM Tris-HCl buffer (pH 7.4) containing 10 mM EGTA and 10 μM phenylmethylsulfonylfluoride (PMSF), which generally lysed any red blood cells in the preparation. Additional red blood cell lysis was performed using 10 mM potassium bicarbonate buffer containing 16 mM ammonium chloride and 100 μM ethylenediaminetetraacetic acid (EDTA). Cells were washed twice and sonicated on ice using a Fisher Model 300 Sonicator (Fisher Scientific, Pittsburgh, Penna.) with microprobe. Preparations were monitored microscopically and were sonicated until greater than 95% cell rupture was achieved. Sonicated preparations were centrifuged at 1000×g at 4° C. to remove debris and large particles. Supernatants were then spun at 33,000 rpm (55,000×g) at 4° C. for 45 min in a Sorvall UTD65B Ultracentrifuge (T1270 rotor) to isolate membranes. Resulting membrane preparations were resuspended in 50 mM Tris-HCl (pH 7.4) containing 10 mM MgCL2 and 10 μM PMSF, and aliquots were stored at -70° C.
Membranes (30 μg/ml) were incubated in a final volume of 200 μl with cold AVP and/or AVP-binding peptide for 20 min. prior to the addition of 300 nM ^3 H-AVP (specific activity, 70 Ci/mmol; New England Nuclear, Boston, Mass.). Binding was carried out at room temperature for 30 min., at which time samples were placed on ice to stop further binding. Membranes were washed through 0.45 μm filters (GVWP; Millipore, Bedford, Mass.) presoaked in 2% bovine serum albumin (BSA) with approximately 50× volume of ice cold reaction buffer (50 mM Tris-HCl, pH 7.4, 10 mM MgCl2, 2% BSA, 10 μM PMSF). Filters were then placed in scintillation vials and radioactivity was counted on a beta-scintillation counter.

The target in experiment [2] is AVP (Homo sapiens, UniProt P01185). As to the kind of experiment: Solid matrix binding of 3H-AVP to immobilized AVP-binding peptide. The note with it: 3H-AVP binding to peptide coupled to a solid matrix, room temperature 1 hr; read-out: apparent KD. How it is done:
FIG. 1--Specific binding of ^3 H-AVP to AVP-binding peptide […] AVP-binding peptide (200 μl of a 2 mg/ml solution) was bound overnight at 4° C. onto 96-well Immulon plates (Dynatech, Alexandria, Va.). Plates were washed three times with phosphate-buffered saline containing 5% BSA and 0.1% TWEEN™ 20 (binding buffer). Remaining binding sites were bound by incubating plates at room temperature with 20 μl binding buffer/well for 2 hr. After extensive washing, cold AVP (10 μM) was added to the appropriate plates 20 min, prior to the addition of ^3 H-AVP. Solid matrix binding was carried out at room temperature for 1 hr. Plates were washed three times and counts were solubilized with 1 N NaOH. Counts were then placed in scintillation vials and counted on a beta-scintillation counter. Specific binding of ^3 H-AVP was the difference between the binding in the absence and presence of cold AVP.
Evidence for such direct interaction is provided by the binding data of FIG. 1, where ^3 H-AVP bound to the peptide coupled to a solid matrix with an apparent KD of approximately 50 nM. The binding was inhibited by excess cold AVP. We conclude that the peptide blocks AVP function through direct binding to AVP.

Experiment [3] relates to PA helper signal for IFN production. As to the kind of experiment: Pressinoic acid (PA) help in IFN production in helper cell depleted spleen cell cultures. In kind it is cell-based, mouse.

On to `NC(=O)CC[C@@H]1NC(=O)[C@H](Cc2ccccc2)NC(=O)[C@H](Cc2ccc(O)cc2)NC(=O)[C@@H](N)CSSC[C@@H](C(=O)N2CCC[C@H]2C(=O)N[C@@H](CCCN=C(N)N)C(=O)NCC(N)=O)NC(=O)[C@H](CC(N)=O)NC1=O` [AVP, Arginine vasopressin], for which, in experiment [1] (cold AVP as competitor), the “effect on binding of 300 nM 3H-AVP to lymphocyte receptors” value is “did compete and block”. Besides, the “DPM (Mean ± SD)” value is listed as 5,265 ± 476 DPM in experiment [1] (competitor 0.1 μM, none = 4,965 ± 226); 4,209 ± 150 DPM in experiment [1] (competitor 1.0 μM); 3,621 ± 347 DPM in experiment [1] (competitor 10.0 μM); 3,577 ± 167 DPM in experiment [1] (competitor 100.0 μM).
Turning to TMKVLTGSP [AVP-binding peptide], the Kd in experiment [2] was around 50 nM.
pressinoic acid [PA]: the IFN in experiment [3] (Table 4, PA (10) (nm), no binding peptide) is reported as 105 ± 21 U/ml; in experiment [3] (Table 5, PA 3 nM, no complex), below 3 U/ml; in experiment [3] (Table 5, PA 10 nM, no complex) it was 185 ± 21 U/ml; in experiment [3] (Table 5, PA 30 nM, no complex), 250 ± 71 U/ml.
